Source: patent publication US20240206462A1, “ESSENTIAL OIL-BASED AGRICULTURAL COMPOSITION AND METHOD FOR CONTROLLING A PEST USING THE SAME” (MOMENTIVE PERFORMANCE MATERIALS INC., priority 2021, published 2024)

System: tomato grey mold (Botrytis cinerea)
Test: Plate method growth inhibition of fungal plant pathogen on PDA medium
Assay type: cell-based
Conditions: concluded from geraniol-based compositions

CC(C)=CCCC(C)=CCO [geraniol, 3,7-dimethylocta-2,6-dien-1-ol]
inhibition activity on Botrytis genus, especially Botrytis cinerea: high inhibition activity
